According to patent publication US9096559B2, “4-carboxybenzylamino derivatives as histone deacetylase inhibitors” (Merck Sharp & Dohme Corp., priority 2007, dated 2015):
Where two headings read alike, the source gives them in different places.

How the values were obtained:
CYP2C9 = CYP2C9 (Homo sapiens (Human), UniProt P11712); test: CYP inhibition potential, CYP2C9; assay type: in vitro ADME
Source text: (§1) The ancillary pharmacology profiles of the SHI-1:2 carbamate analogs were also gathered to investigate off-target activities (Table 12).

IKr ion channel = IKr ion channel (Homo sapiens (Human), UniProt Q12809); test: Displacement binding assay using radio-labeled MK-499
Source text: as §1

CYP3A4 = CYP3A4 (Homo sapiens (Human), UniProt P08684); test: CYP inhibition potential, CYP3A4; assay type: in vitro ADME
Source text: as §1

CYP2D6 = CYP2D6 (Homo sapiens (Human), UniProt P10635); test: CYP inhibition potential, CYP2D6; assay type: in vitro ADME
Source text: as §1

HCT-116 = HCT-116 anti-proliferation (GI50); assay type: cell-based, human; conditions: means of n ≧ 2 experiments
Method: (§2) The novel compounds of the present invention were tested for their ability to inhibit proliferation of the human cervical cancer (HeLa) and colon carcinoma (HCT116) cells.
In this assay, also referred to as the Vialight Assay, cellular ATP levels are measured as a means of quantifying cellular proliferation. This assay makes use of a bioluminescent method from Cambrex (ViaLight PLUS, cat. #LT07-121). In the presence of ATP, luciferase converts luciferin to oxyluciferin and light. The amount of light produced (emission at 565 nm) is measured and correlates with a relative amount of proliferation. Human cervical cancer (HeLa) or colon carcinoma (HCT116) cells were incubated with vehicle or increasing concentrations of compound for 48, 72 or 96 hours. Cell proliferation was quantified by adding the cell lysis reagent (provided in the Vialight assay kit) directly to culture wells, followed by addition of the ATP-monitoring reagent (containing luciferase/luciferin). The amount of light produced is then measured (emission at 565 nm). The quantity of light produced, as measured by […], is directly proportional to the number of living cells in culture. […]

[1] = biological target: histone deacetylase, subtype 1 (HDAC1) (Homo sapiens (Human), UniProt Q13547); test: HDAC1-Flag in vitro deacetylation assay; assay type: biochemical
Procedure, shortened: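 Enzyme: Flag epitope-tagged human HDAC1 complex immunopurified from stably expressing mammalian cells. Substrate carries an acetylated lysine side chain; deacetylation yields a fluorophore proportional to activity, measured as fluorescence.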

[2] = test system: human cervical cancer (HeLa) and colon carcinoma (HCT116) cells; test: ATP (Vialight) cell proliferation assay, 72 hr; assay type: cell-based; conditions: IP = inflection point, cell line not given, read-out: Prol-72 hr IP (inflection point)
Method: as §2
In this assay, also referred to as the Vialight Assay, cellular ATP levels are measured as a means of quantifying cellular proliferation. This assay makes use of a bioluminescent method from Cambrex (ViaLight PLUS, cat. #LT07-121). In the presence of ATP, luciferase converts luciferin to oxyluciferin and light. The amount of light produced (emission at 565 nm) is measured and correlates with a relative amount of proliferation. Human cervical cancer (HeLa) or colon carcinoma (HCT116) cells were incubated with vehicle or increasing concentrations of compound for 48, 72 or 96 hours. Cell proliferation was quantified by adding the cell lysis reagent (provided in the Vialight assay kit) directly to culture wells, followed by addition of the ATP-monitoring reagent (containing luciferase/luciferin). The amount of light produced is then measured (emission at 565 nm). The quantity of light produced, as measured by […], is directly proportional to the number of living cells in culture.

[3] = means of n ≧ 2 experiments, read-out: HDAC1 IC50
[4] = IP = inflection point, read-out: HDAC1 IP (inflection point)

Sequence of histone deacetylase, subtype 1 (HDAC1) (Q13547 whole entry): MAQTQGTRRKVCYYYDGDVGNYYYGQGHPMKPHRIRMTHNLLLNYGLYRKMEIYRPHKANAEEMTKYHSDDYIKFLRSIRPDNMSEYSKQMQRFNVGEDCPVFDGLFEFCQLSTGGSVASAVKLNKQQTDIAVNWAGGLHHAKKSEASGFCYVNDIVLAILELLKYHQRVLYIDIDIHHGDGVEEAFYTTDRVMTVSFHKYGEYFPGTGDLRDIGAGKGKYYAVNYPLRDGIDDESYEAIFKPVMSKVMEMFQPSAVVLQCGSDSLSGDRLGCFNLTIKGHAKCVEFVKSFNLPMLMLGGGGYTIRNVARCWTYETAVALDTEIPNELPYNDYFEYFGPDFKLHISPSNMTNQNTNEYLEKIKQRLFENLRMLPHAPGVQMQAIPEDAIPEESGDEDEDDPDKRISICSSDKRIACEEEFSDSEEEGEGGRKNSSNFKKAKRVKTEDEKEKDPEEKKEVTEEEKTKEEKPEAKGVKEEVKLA
Sequence of CYP2D6 (P10635 whole entry): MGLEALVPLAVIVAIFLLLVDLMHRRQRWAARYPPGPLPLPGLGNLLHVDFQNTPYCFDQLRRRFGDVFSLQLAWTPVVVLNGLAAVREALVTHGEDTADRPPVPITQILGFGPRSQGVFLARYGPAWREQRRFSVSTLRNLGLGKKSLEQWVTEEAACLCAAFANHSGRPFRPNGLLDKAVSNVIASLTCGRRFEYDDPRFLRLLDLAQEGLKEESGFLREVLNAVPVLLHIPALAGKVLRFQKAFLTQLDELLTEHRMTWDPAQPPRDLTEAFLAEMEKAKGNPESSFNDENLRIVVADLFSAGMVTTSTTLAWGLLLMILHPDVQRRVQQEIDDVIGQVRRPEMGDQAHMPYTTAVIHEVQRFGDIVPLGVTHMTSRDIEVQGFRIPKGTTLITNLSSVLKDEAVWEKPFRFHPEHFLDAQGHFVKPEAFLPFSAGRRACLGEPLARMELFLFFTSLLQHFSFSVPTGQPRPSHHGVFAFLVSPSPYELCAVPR
Sequence of IKr ion channel (Q12809 whole entry): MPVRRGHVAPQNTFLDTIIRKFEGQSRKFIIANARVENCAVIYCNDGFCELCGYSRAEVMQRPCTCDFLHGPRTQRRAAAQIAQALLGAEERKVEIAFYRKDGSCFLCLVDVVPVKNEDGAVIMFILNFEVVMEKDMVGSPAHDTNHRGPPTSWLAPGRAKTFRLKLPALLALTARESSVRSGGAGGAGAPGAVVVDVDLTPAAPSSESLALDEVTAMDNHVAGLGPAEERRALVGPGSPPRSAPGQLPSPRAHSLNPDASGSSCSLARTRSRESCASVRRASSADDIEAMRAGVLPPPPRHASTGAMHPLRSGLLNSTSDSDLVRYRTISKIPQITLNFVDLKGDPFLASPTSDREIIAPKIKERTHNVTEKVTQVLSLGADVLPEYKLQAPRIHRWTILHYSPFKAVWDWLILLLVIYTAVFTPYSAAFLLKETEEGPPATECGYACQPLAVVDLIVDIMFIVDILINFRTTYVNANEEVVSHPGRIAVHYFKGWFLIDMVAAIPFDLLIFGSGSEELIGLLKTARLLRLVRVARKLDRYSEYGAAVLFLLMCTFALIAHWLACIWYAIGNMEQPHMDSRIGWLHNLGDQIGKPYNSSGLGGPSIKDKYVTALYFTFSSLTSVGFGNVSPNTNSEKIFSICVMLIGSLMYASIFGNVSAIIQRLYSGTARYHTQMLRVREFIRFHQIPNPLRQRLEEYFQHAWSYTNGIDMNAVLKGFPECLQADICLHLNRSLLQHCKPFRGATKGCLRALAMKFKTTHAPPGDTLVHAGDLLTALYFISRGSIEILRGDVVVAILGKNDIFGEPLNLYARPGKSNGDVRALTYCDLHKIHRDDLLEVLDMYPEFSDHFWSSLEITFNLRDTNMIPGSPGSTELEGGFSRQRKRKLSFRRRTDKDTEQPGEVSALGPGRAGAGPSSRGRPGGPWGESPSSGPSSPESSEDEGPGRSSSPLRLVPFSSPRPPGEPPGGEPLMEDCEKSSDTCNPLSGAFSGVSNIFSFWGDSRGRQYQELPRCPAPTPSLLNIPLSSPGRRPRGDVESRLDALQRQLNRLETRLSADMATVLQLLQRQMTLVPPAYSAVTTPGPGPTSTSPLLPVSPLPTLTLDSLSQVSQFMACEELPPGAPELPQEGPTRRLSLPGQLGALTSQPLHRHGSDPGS
Sequence of CYP3A4 (P08684 whole entry): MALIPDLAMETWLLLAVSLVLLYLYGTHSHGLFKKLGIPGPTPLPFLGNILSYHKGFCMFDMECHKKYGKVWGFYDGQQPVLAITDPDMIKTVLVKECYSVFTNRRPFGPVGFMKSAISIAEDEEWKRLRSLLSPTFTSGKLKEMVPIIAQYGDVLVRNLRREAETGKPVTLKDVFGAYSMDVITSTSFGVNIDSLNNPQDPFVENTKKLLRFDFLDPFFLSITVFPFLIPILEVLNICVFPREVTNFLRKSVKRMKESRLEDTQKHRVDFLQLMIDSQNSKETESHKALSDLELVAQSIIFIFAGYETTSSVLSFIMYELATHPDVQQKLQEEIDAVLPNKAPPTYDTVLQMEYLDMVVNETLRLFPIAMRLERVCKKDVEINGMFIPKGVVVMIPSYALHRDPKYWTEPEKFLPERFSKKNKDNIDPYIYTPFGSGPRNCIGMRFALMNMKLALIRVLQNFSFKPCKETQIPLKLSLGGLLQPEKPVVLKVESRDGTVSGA
Sequence of CYP2C9 (P11712 whole entry): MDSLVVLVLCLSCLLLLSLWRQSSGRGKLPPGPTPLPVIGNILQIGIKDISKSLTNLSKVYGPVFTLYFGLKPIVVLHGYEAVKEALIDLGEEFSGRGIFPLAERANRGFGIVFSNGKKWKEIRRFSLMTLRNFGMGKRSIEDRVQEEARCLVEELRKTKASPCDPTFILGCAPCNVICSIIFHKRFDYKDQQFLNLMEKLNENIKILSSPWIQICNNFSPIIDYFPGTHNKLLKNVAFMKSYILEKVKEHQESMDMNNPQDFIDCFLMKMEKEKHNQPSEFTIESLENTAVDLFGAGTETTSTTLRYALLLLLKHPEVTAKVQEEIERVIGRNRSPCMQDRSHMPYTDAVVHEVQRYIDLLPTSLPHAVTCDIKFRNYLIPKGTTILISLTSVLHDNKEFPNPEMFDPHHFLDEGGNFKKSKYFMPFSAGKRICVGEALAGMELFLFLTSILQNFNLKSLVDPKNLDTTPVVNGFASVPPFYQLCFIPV

In the case of `COC(=O)NCc1ccc(C(=O)Nc2cc(-c3ccccc3)ccc2N)cc1` [Example 14f], the “% CYP Inhibition @ 10 μM 2C9” value (CYP2C9) is reported as 46%, the “% MK-499 Binding Inhibition @ 10 μM” value (IKr ion channel) is reported as 28% and the “% CYP Inhibition @ 10 μM 3A4” value (CYP3A4) is reported as 23%. The “% CYP Inhibition @ 10 μM 2D6” value (CYP2D6) was 49% and the GI50 (HCT-116) was 230 nM.
With `Nc1ccc(-c2ccccc2)cc1NC(=O)c1ccc(CNC(=O)OCc2ccccn2)cc1` [Example 14b] the “% CYP Inhibition @ 10 μM 2C9” value (CYP2C9) was 67%, the “% MK-499 Binding Inhibition @ 10 μM” value (IKr ion channel) was 51% and the “% CYP Inhibition @ 10 μM 3A4” value (CYP3A4) was 38%. For the same compound, the IC50 [1, 3] was 8 nM, the “% CYP Inhibition @ 10 μM 2D6” value (CYP2D6) was 29% and the GI50 (HCT-116) was 435 nM.
`Nc1ccc(-c2ccccc2)cc1NC(=O)c1ccc(CNC(=O)CCc2cccnc2)cc1` [Example 14a] was tested, and the “% CYP Inhibition @ 10 μM 2C9” value (CYP2C9) was 73%, the IC50 (IKr ion channel) was 3700 nM and the “% CYP Inhibition @ 10 μM 3A4” value (CYP3A4) was 65%. The IC50 [1, 3] was 11 nM, the “% CYP Inhibition @ 10 μM 2D6” value (CYP2D6) was 25% and the GI50 (HCT-116) was 337 nM.
In the case of `Nc1ccc(-c2ccccc2)cc1NC(=O)c1ccc(CNC(=O)C2CCCCC2)cc1` [Example 14i], the “% CYP Inhibition @ 10 μM 2C9” value (CYP2C9) is reported as 32%, the “% MK-499 Binding Inhibition @ 10 μM” value (IKr ion channel) is reported as 30% and the “% CYP Inhibition @ 10 μM 3A4” value (CYP3A4) is reported as 12%. The IC50 [1, 3] was 20 nM, the “% CYP Inhibition @ 10 μM 2D6” value (CYP2D6) was 17% and the GI50 (HCT-116) was 335 nM.
For `CCOC(=O)NCc1ccc(C(=O)Nc2cc(-c3ccccc3)ccc2N)cc1` [Example 14e], the “% CYP Inhibition @ 10 μM 2C9” value (CYP2C9) was 35%, the “% MK-499 Binding Inhibition @ 10 μM” value (IKr ion channel) was 40% and the “% CYP Inhibition @ 10 μM 3A4” value (CYP3A4) was 22%. For the same compound, the IC50 [1, 3] was 13 nM, the “% CYP Inhibition @ 10 μM 2D6” value (CYP2D6) was 26% and the GI50 (HCT-116) was 230 nM.
With `CCCC(=O)NCc1ccc(C(=O)Nc2cc(-c3ccccc3)ccc2N)cc1` [Example 14g] the “% CYP Inhibition @ 10 μM 2C9” value (CYP2C9) was 27%, the “% MK-499 Binding Inhibition @ 10 μM” value (IKr ion channel) was 38% and the “% CYP Inhibition @ 10 μM 3A4” value (CYP3A4) was 33%. The IC50 [1, 3] was 10 nM, the “% CYP Inhibition @ 10 μM 2D6” value (CYP2D6) was 28% and the GI50 (HCT-116) was 220 nM.
For `Nc1ccc(-c2ccccc2)cc1NC(=O)c1ccc(CNC(=O)OCc2cccnc2)cc1` [Example 2a], the GI50 (HCT-116) was 225 nM.
In the case of `CCC(=O)NCc1ccc(C(=O)Nc2cc(-c3ccccc3)ccc2N)cc1` [Example 14h], the “% CYP Inhibition @ 10 μM 2C9” value (CYP2C9) is reported as 28%, the “% MK-499 Binding Inhibition @ 10 μM” value (IKr ion channel) is reported as 24% and the “% CYP Inhibition @ 10 μM 3A4” value (CYP3A4) is reported as 30%. The IC50 [1, 3] was 10 nM, the “% CYP Inhibition @ 10 μM 2D6” value (CYP2D6) was 38% and the GI50 (HCT-116) was 150 nM.
For `CN(Cc1ccc(C(=O)Nc2cc(-c3ccccc3)ccc2N)cc1)c1ccncc1` [Example 62, N-(4-amino-3-biphenylyl)-4-{[methyl(4-pyridinyl)amino]methyl}benzamide], the IC50 [2] was 3600 nM and the IC50 [1, 4] was 10 nM.
With `CNCCCN(C)Cc1ccc(C(=O)Nc2cc(-c3ccccc3)ccc2N)cc1` [Example 64, N-(4-amino-3-biphenylyl)-4-({methyl[3-(methylamino)propyl]amino}methyl)benzamide] the IC50 [2] was 540 nM and the IC50 [1, 4] was 18 nM.
`Nc1ccc(-c2ccccc2)cc1NC(=O)c1ccc(CNC(=O)Cc2ccccn2)cc1` [Example 50, N-(4-aminobiphenyl-3-yl)-4-{[(pyridin-2-ylacetyl)amino]methyl}benzamide] was tested, and the IC50 [2] was 300 nM and the IC50 [1, 4] was 19 nM.
`Cc1csc(-c2ccc(N)c(NC(=O)c3ccc(CNc4ccncc4)cc3)c2)c1` [Example 69, N-[2-amino-5-(4-methyl-2-thienyl)phenyl]-4-[(4-pyridinylamino)methyl]benzamide] was tested, and the IC50 [2] was 9700 nM and the IC50 [1, 4] was 15 nM.
For `Nc1ccc(-c2cccs2)cc1NC(=O)c1ccc(CNC(=O)C2CCCC2)cc1` [Example 46, N-[2-amino-5-(2-thienyl)phenyl]-4-{[(cyclopentylcarbonyl)amino]methyl}benzamide], the IC50 [2] was 140 nM and the IC50 [1, 4] was 20 nM.
For `Nc1ccc(-c2cccs2)cc1NC(=O)c1ccc(CNC(=O)c2ccccc2)cc1` [Example 48, N-[2-amino-5-(2-thienyl)phenyl]-4-{[(phenylcarbonyl)amino]methyl}benzamide], the IC50 [2] was 110 nM and the IC50 [1, 4] was 13 nM.
`Nc1ccc(-c2ccccc2)cc1NC(=O)c1ccc(CNC(=O)CCc2cccnc2)cc1` [Example 53, N-(4-aminobiphenyl-3-yl)-4-{[(3-pyridin-3-ylpropanoyl)amino]methyl}benzamide] gave an IC50 [2] of 340 nM and an IC50 [1, 4] of 16 nM.
`Nc1ccc(-c2cccs2)cc1NC(=O)c1ccc(CNC(=O)OCc2ccccc2)cc1` [Example 22, phenylmethyl {[4-({[2-amino-5-(2-thienyl)phenyl]amino}carbonyl)phenyl]methyl}carbamate] was tested, and the IC50 [2] was 320 nM and the IC50 [1, 4] was 53 nM.
With `Nc1ccc(-c2ccccc2)cc1NC(=O)c1ccc(CNC(=O)Cc2ccncc2)cc1` [Example 52, N-(4-aminobiphenyl-3-yl)-4-{[(pyridin-4-ylacetyl)amino]methyl}benzamide] the IC50 [2] was 250 nM and the IC50 [1, 4] was 15 nM.
`CC(=O)NCc1ccc(C(=O)Nc2cc(-c3ccccc3)ccc2N)cc1` [Example 23, 4-[(acetylamino)methyl]-N-(4-aminobiphenyl-3-yl)benzamide] was tested, and the IC50 [2] was 320 nM and the IC50 [1, 4] was 18 nM.
In the case of `CCCOC(=O)NCc1ccc(C(=O)Nc2cc(-c3ccccc3)ccc2N)cc1` [Example 12, propyl[(4-{[(4-aminobiphenyl-3-yl)amino]carbonyl}phenyl)methyl]carbamate], the IC50 [2] is reported as 360 nM and the IC50 [1, 4] is reported as 29 nM.
`CN(C)S(=O)(=O)NCc1ccc(C(=O)Nc2cc(-c3cccs3)ccc2N)cc1` [Example 60, N-[2-amino-5-(2-thienyl)phenyl]-4-({[(dimethylamino)sulfonyl]amino}methyl)benzamide] was tested, and the IC50 [2] was 260 nM and the IC50 [1, 4] was 17 nM.
`Nc1ccc(-c2ccccc2)cc1NC(=O)c1ccc(CNC(=O)c2ccccc2)cc1` [Example 35, N-(4-aminobiphenyl-3-yl)-4-{[(phenylcarbonyl)amino]methyl}benzamide] was tested, and the IC50 [2] was 160 nM and the IC50 [1, 4] was 19 nM.
In the case of `Nc1ccc(-c2ccsc2)cc1NC(=O)c1ccc(CNCC(=O)O)cc1` [Example 125, {[4-({[2-amino-5-(3-thienyl)phenyl]amino}carbonyl)benzyl]amino}acetic acid], the IC50 [2] is reported as greater than 20000 nM and the IC50 [1, 4] is reported as 42 nM.
With `Nc1ccc(-c2ccccc2)cc1NC(=O)c1ccc(CN2C(=O)OC[C@H]2c2ccccc2)cc1` [Example 122, N-(4-aminobiphenyl-3-yl)-4-{[(4R)-2-oxo-4-phenyl-1,3-oxazolidin-3-yl]methyl}benzamide] the IC50 [2] was 1100 nM and the IC50 [1, 4] was 58 nM.
`CC(C)C(=O)NCc1ccc(C(=O)Nc2cc(-c3cccs3)ccc2N)cc1` [Example 40, N-[2-amino-5-(2-thienyl)phenyl]-4-{[(2-methylpropanoyl)amino]methyl}benzamide] showed an IC50 [2] of 150 nM and an IC50 [1, 4] of 16 nM.
`Cc1cscc1-c1ccc(N)c(NC(=O)c2ccc(CNc3ccncc3)cc2)c1` [Example 70, N-[2-amino-5-(4-methyl-3-thienyl)phenyl]-4-[(4-pyridinylamino)methyl]benzamide] gave an IC50 [2] of 13000 nM and an IC50 [1, 4] of 180 nM.
With `Nc1ccc(-c2ccsc2)cc1NC(=O)c1ccc(CNC(=O)OCc2cccnc2)cc1` [Example 4, pyridin-3-ylmethyl {[4-({[2-amino-5-(3-thienyl)phenyl]amino}carbonyl)phenyl]methyl}carbamate] the IC50 [2] was 370 nM and the IC50 [1, 4] was 5.8 nM.
With `COC(=O)NCc1ccc(C(=O)Nc2cc(-c3cccs3)ccc2N)cc1` [Example 17, methyl {[4-({[2-amino-5-(2-thienyl)phenyl]amino}carbonyl)phenyl]methyl}carbamate] the IC50 [2] was 96 nM and the IC50 [1, 4] was 6 nM.
